Patent US5952307A, “Basic α-aminoalkylphosphonate derivatives” (priority 1997, dated 1999)
Where two headings read alike, the source gives them in different places.

Columns and labels:
Assay type in all cases: biochemical
mast cell tryptase = mast cell tryptase (Homo sapiens, UniProt Q15661); assay: Inactivation rate of mast cell tryptase, incubation method; conditions: for kobs /[I] mast cell tryptase: 25° C., NI = no inhibition; for kobsd /[I] mast cell tryptase: Table I, 0.1M Hepes, 10% glycerol, 10 mM heparin, pH 7.5, 25° C., 7.1% DMSO, NI = no inhibition after 25 min of incubation
How it was run: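 Incubation method at 25 °C: 0.07 μM tryptase with 20–66 μM inhibitor in Hepes pH 7.5 containing heparin, glycerol and DMSO. Aliquots were withdrawn at intervals for residual activity on Z-Arg-SBzl or Z-Lys-SBzl with DTNB. Pseudo-first-order kobs came from ln(vt/v0) versus time.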

human thrombin = molecular target: T1, human thrombin (Homo sapiens, UniProt P00734); conditions: 25° C., NI = no inhibition
T1 construct: bovine trypsin, human thrombin
How it was run: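 Irreversible inactivation followed by incubation method at 25 °C: 0.07 μM thrombin with 0.25–42 μM inhibitor in 80 mM Hepes pH 7.5, 428 mM NaCl, 8% DMSO. Residual activity of withdrawn aliquots measured with thioester or 4-nitroanilide substrates; kobs from pseudo-first-order fits.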

plasmin = molecular target: T2, plasmin (Homo sapiens, UniProt P00747); assay: Inactivation rate of plasmin, incubation method; conditions: Table III; enzyme 0.06-0.5 μM, inhibitor 0.25-42 μM, 9% DMSO, 25° C.; NI = no inhibition
T2 construct: factor Xa, plasmin, and urokinase
Description: (§1) Inactivation rates of serine proteases by aryl diesters of peptidyl derivatives of α-aminoalkylphosphonates were measured by the incubation method. An aliquot of inhibitor (25 or 50 μl) in Me2 SO was added to a buffered enzyme solution (0.01-2.3 μM) to initiate the inactivation. Aliquots (50 μl) were withdrawn at various intervals and the residual enzymatic activity was measured. Me2 SO concentration in the reaction mixture was 8-12% (v/v). A 0.1 M HEPES, 0.01 M CaCl2, pH 7.5 buffer was utilized for trypsin and trypsin-like enzymes. A 0.1 M HEPES, 0.5 M NaCl, pH 7.5, was utilized for the other serine proteases. Peptide thioesters or peptide nitroanilides with the appropriate sequences were used as substrates for various serine proteases. All peptide thioesters hydrolysis rates were measured with the assay mixture containing 4,4'-dithiodipyridine {ε324 =19800 M^-1 cm^-1; Grasetti & Murray, Arch. Biochem. Biophys. 1967, 119, 41-48}. Peptide 4-nitroanilide hydrolysis was measured at 410 nm {ε410 =8800 M^-1 cm^-1; Erlanger et al., Arch. Biochem. Biophys. 1961, 95, 271-278}. First order inactivation rate constants (Kobs) were obtained from plots of In vt /vo vs time, and the correlation coefficients were greater then 0.98.
(§2) ^a Enzyme (0.06-0.5 μM) was incubated with the inhibitor (0.25-42
(§3) μM) in 250 μL of the proper buffer containing 9% DMSO at 25°
(§4) C. The final inhibition reaction mixtures are given in the footnote to
(§5) Table 1. Aliquots of 25 μL were withdrawn at various intervals and the
(§6) residual enzymatic activity was measured as described in experimental
(§7) section. The kobs values were calculated from pseudofirst-order
^b Inhibitor concentration of 0.24 mM.

urokinase = urokinase (Homo sapiens, UniProt P00749); assay: Inactivation rate of urokinase, incubation method; conditions: Table III; enzyme 0.06-0.5 μM, inhibitor 0.25-42 μM, 9% DMSO, 25° C.; NI = no inhibition
Description: as §1, §2, §3, §4, §5, §6, §7

bovine trypsin [1] = molecular target: T3, bovine trypsin (Bos taurus, UniProt P00760); assay: Inactivation rate of bovine trypsin, incubation method; conditions: Table III; enzyme 0.06-0.5 μM, inhibitor 0.25-42 μM, 9% DMSO, 25° C.; NI = no inhibition
T3 sequence (P00760 24-246): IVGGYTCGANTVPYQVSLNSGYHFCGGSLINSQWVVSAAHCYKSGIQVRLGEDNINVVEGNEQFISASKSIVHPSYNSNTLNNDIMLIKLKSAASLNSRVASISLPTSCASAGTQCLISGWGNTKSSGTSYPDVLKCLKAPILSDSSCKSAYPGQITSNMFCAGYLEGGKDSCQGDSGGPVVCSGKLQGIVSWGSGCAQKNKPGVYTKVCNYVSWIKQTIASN

human granzyme A = molecular target: T4, human granzyme A (Homo sapiens, UniProt P12544); assay: Inactivation rate of human granzyme A, incubation method; conditions: Table I; 0.1M Hepes, 0.01M CaCl2 pH 7.5, 25° C., 7.6% DMSO, substrate Z--Arg--SBzl
T4 sequence (P12544 29-262): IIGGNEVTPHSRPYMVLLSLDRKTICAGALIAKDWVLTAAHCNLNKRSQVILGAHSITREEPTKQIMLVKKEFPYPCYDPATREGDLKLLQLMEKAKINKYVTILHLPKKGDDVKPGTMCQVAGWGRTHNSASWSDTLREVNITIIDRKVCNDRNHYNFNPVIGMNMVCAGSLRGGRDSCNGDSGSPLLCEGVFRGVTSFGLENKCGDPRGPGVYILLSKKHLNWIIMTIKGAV
How it was run: (§8)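 Inhibitor in DMSO added to enzyme (0.01-2.3 μM) in 0.1 M HEPES, 0.01 M CaCl2, pH 7.5, 25° C (DMSO 7.6% for granzyme A, 7.1% for granzyme K); residual activity on Z-Arg-SBzl with DTNB read at intervals. Kobs from ln vt/vo vs time plots.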

rat granzyme A = assay: Inactivation rate of rat granzyme A, incubation method; conditions: Table I; 0.1M Hepes, 0.01M CaCl2 pH 7.5, 25° C., 7.6% DMSO, substrate Z--Arg--SBzl
Description: as §1
^a Inhibition constants were measured in 0.1M Hepes, 0.01M CaCl2
pH 7.5 for trypsin, granzymes A, and K, and in 0.1M Hepes, 10% glycerol,
10 mM heparin, pH 7.5 for mast cell tryptase, and at 25° C. The
reaction mixtures contained 2% DMSO for trypsin, 7.6% for granzyme A, and
7.1% for granzyme K and tryptase. The substrate was Z--Arg--SBzl for
granzymes and trypsin, and Z--Arg--SBzl or Z--Lys--SBzl for tryptase in
the presence of DTNB. The inhibitor # concentration ranged from 0.001 to
^b NI, no inhibition after 25 min of incubation with enzyme.

rat granzyme K = molecular target: T5, rat granzyme K (Rattus norvegicus, UniProt P49864); assay: Inactivation rate of rat granzyme K, incubation method; conditions: Table I; 0.1M Hepes, 0.01M CaCl2 pH 7.5, 25° C., 7.1% DMSO, substrate Z--Arg--SBzl; NI = no inhibition after 25 min of incubation
T5 sequence (P49864 26-258): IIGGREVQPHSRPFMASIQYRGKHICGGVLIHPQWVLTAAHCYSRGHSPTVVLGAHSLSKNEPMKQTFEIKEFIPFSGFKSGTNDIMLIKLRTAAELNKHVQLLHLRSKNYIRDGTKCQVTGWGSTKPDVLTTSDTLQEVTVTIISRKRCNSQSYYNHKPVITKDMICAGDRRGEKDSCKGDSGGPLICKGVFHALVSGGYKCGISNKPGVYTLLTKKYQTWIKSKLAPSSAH
How it was run: as §8

bovine trypsin [2] = molecular target: T3, bovine trypsin; assay: Inactivation rate of bovine trypsin, incubation method; conditions: for kobsd /[I] bovine trypsin: Table I, 0.1M Hepes, 0.01M CaCl2 pH 7.5, 25° C., 2% DMSO, substrate Z--Arg--SBzl, NI = no inhibition after 25 min; for kobs /[I] bovine trypsin: Table II, 0.13 μM trypsin, 0.25-42 μM inhibitor, 80 mM Hepes pH 7.5, 1 mM CaCl2, 8% DMSO, 25° C., NI = no inhibition
How it was run: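 Incubation method: trypsin pre-incubated with inhibitor (0.25-42 μM) at 25° C in 80 mM Hepes, 1 mM CaCl2, pH 7.5, 8% DMSO; aliquots withdrawn over time for residual activity on Z-Arg-SBzl thioester with DTNB or 4,4'-dithiodipyridine. Pseudo-first-order kobs from ln vt/vo versus time.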

[3] = Table III, enzyme 0.06-0.5 μM, inhibitor 0.25-42 μM, 9% DMSO
[4] = Table II, 0.07 μM tryptase, 20-66 μM inhibitor, Hepes pH 7.5, heparin, 9% glycerol, 8% DMSO
[5] = Table II, 0.07 μM thrombin, 0.25-42 μM inhibitor, 80 mM Hepes pH 7.5, 428 mM NaCl, 8% DMSO

T2 sequence (P00747 581-810 limits assumed, species assumed): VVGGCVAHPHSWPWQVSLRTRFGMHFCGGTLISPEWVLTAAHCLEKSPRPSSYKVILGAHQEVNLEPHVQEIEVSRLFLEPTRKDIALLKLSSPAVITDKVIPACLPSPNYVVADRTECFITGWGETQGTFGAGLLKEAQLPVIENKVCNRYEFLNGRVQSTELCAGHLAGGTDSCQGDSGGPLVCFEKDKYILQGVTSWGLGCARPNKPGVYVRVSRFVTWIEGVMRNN
T2 sequence (P00747 97-580 partner limits assumed, species assumed): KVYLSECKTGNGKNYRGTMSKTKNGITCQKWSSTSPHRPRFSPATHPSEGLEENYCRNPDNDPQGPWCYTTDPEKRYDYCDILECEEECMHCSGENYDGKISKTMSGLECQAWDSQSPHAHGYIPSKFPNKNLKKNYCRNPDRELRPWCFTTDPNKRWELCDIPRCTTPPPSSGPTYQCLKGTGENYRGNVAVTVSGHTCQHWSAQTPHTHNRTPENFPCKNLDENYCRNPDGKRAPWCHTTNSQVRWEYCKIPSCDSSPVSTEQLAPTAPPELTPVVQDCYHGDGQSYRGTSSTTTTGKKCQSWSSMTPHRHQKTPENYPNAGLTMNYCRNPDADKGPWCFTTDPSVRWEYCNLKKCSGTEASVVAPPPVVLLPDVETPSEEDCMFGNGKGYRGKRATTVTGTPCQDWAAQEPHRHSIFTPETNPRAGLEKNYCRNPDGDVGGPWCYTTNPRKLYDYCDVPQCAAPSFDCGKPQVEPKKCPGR
mast cell tryptase, sequence (Q15661 31-275): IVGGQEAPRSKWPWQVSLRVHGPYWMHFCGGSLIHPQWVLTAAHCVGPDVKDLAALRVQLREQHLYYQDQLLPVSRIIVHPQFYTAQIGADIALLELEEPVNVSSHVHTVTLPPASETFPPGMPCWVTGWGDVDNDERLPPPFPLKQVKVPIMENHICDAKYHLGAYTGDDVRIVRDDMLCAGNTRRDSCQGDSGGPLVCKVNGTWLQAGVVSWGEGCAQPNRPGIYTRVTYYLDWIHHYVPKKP

Row | Compound | kobs /[I] mast cell tryptase (mast cell tryptase; [3]) | kobs /[I] human thrombin (human thrombin; [3]) | kobs /[I] plasmin (plasmin) [M⁻¹ s⁻¹] | kobs /[I] urokinase (urokinase) [M⁻¹ s⁻¹] | kobs /[I] bovine trypsin (bovine trypsin [1]) | kobsd /[I] human granzyme A (human granzyme A) [M⁻¹ s⁻¹] | kobsd /[I] rat granzyme A (rat granzyme A) [M⁻¹ s⁻¹] | kobsd /[I] rat granzyme K (rat granzyme K) [M⁻¹ s⁻¹] | kobsd /[I] mast cell tryptase (mast cell tryptase) [M⁻¹ s⁻¹] | kobs /[I] mast cell tryptase (mast cell tryptase; [4]) [M⁻¹ s⁻¹] | kobsd /[I] bovine trypsin (bovine trypsin [2]) [M⁻¹ s⁻¹] | kobs /[I] bovine trypsin (bovine trypsin [2]) [M⁻¹ s⁻¹] | kobs /[I] human thrombin (human thrombin; [5]) [M⁻¹ s⁻¹]
1 | CC(C)(C)OC(=O)NC(Cc1ccccc1)C(=O)N1CCCC1C(=O)NC(CCCCN)P(=O)(Oc1ccccc1)Oc1ccccc1 (mixture of isomers) [Boc--D--Phe--Pro--Lys^P (OPh)2] | 68 ± 4 M⁻¹ s⁻¹ | 9,364 ± 110 M^-1 s^-1 | 51 ± 4 | 38 ± 3 | 28,840 ± 1,800 M^-1 s^-1 |  |  |  |  |  |  |  | 
2 | CC(O)C(NC(=O)OCc1ccccc1)C(=O)NC(CCCCN)P(=O)(Oc1ccccc1)Oc1ccccc1 (mixture of isomers) [Cbz--Thr--Lys^P (OPh)2] | 7 ± 1 M⁻¹ s⁻¹ |  |  | 0.7 ± 0.1 | 230 M⁻¹ s⁻¹ |  |  |  |  |  |  |  | 
3 | NCCCCCC(NC(=O)C1CCCN1C(=O)C(N)Cc1ccccc1)P(=O)(Oc1ccccc1)Oc1ccccc1 (mixture of isomers) [D--Phe--Pro-HomoLys^P (OPh)2] | 4.1 0.2 M^-1 s^-1 | 1,342 ± 272 M^-1 s^-1 |  | 7.8 ± 0.0 | 164 ± 14 M⁻¹ s⁻¹ |  |  |  |  |  |  |  | 
4 | NCCCCC(NC(=O)C1CCCN1C(=O)CNS(=O)(=O)Cc1ccccc1)P(=O)(Oc1ccccc1)Oc1ccccc1 (mixture of isomers) [PhCH2 SO2 --Gly--Pro--Lys^P (OPh)2] | 24 ± 0 M⁻¹ s⁻¹ | 649 ± 14 M⁻¹ s⁻¹ | 13 ± 1 | 39 ± 2 | 12,472 ± 1,400 M^-1 s^-1 |  |  |  |  |  |  |  | 
5 | NCCCCCC(NC(=O)C1CCCN1C(=O)CNS(=O)(=O)Cc1ccccc1)P(=O)(Oc1ccccc1)Oc1ccccc1 (mixture of isomers) [PhCH2 SO2 Gly--Pro-HomoLys^P (OPh)2] | 32 ± 2 M⁻¹ s⁻¹ | 137 ± 12 M⁻¹ s⁻¹ | 8.4 ± 0.2 | 38 ± 3 | 528 ± 59 M⁻¹ s⁻¹ |  |  |  |  |  |  |  | 
6 | Cl.NCCCCC(NC(=O)[C@@H]1CCCN1C(=O)c1ccccc1Oc1ccccc1)P(=O)(Oc1ccccc1)Oc1ccccc1 (stereo partly shown) [2-Phenoxybenzoyl-Pro--Lys^P (OPh)2, Diphenyl 1-(N-(2-Phenoxybenzoylprolyl)amino)-5-aminopentanephosphonate Hydrochloride] | 19 ± 1 M⁻¹ s⁻¹ | 4,531 ± 140 M^-1 s^-1 | 7.1 ± 0.2 | 0.6 ± 0.1 | 16,411 ± 460 M^-1 s^-1 |  |  |  |  |  |  |  | 
7 | Cl.N=C(N)c1ccc(C(NC(=O)C=Cc2cccs2)P(=O)(Oc2ccccc2)Oc2ccccc2)cc1 (stereo not shown) [Diphenyl N-(3-(2-Thienyl)acryloyl)amino(4-amidinophenyl)methanephosphonate Hydrochloride] |  |  |  |  |  | 740 ± 18 | 430 ± 31 | 4 | 1 | 1 | 300 ± 22 | 300 ± 22 | 90 ± 4
8 | Cl.N=C(N)c1ccc(C(NC(=O)/C=C/c2ccccc2)P(=O)(Oc2ccccc2)Oc2ccccc2)cc1 (stereo not drawn) [trans-Cinnamoyl-(4-AmPhGly)^P (OPh)2, Diphenyl N-(trans-Cinnamoyl)amino(4-amidinophenyl)methanephosphonate Hydrochloride] |  |  |  |  |  | 400 ± 10 | 340 ± 18 | 3 | 0.3 | 0.3 | 110 ± 1 | 110 ± 1 | 20 ± 1
9 | Diphenyl N-(N-Benzyloxycarbonyl)amino(6-aminohexyl)methanephosphonate [Cbz-HomoLys^P (OPh)2] | 0.7 M⁻¹ s⁻¹ |  |  | 1.0 ± 0.0 | 21 ± 6 M⁻¹ s⁻¹ |  |  |  |  |  |  |  | 
